Measurements published in patent US20250255976A1, “CATIONIC BIOMATERIALS AMELIORATE OBESITY-ASSOCIATED CHRONIC INFLAMMATION AND FOCAL ADIPOSITY” (THE TRUSTEES OF COLUMBIA UNIVERSITY IN THE CITY OF NEW YORK, priority 2022, published 2025).

Target: T1, TLR3 (Homo sapiens, UniProt O15455)
T1 construct: host or cells: HEK-Blue (HEK293) TLR3 reporter cells
T1 sequence (O15455 24-904): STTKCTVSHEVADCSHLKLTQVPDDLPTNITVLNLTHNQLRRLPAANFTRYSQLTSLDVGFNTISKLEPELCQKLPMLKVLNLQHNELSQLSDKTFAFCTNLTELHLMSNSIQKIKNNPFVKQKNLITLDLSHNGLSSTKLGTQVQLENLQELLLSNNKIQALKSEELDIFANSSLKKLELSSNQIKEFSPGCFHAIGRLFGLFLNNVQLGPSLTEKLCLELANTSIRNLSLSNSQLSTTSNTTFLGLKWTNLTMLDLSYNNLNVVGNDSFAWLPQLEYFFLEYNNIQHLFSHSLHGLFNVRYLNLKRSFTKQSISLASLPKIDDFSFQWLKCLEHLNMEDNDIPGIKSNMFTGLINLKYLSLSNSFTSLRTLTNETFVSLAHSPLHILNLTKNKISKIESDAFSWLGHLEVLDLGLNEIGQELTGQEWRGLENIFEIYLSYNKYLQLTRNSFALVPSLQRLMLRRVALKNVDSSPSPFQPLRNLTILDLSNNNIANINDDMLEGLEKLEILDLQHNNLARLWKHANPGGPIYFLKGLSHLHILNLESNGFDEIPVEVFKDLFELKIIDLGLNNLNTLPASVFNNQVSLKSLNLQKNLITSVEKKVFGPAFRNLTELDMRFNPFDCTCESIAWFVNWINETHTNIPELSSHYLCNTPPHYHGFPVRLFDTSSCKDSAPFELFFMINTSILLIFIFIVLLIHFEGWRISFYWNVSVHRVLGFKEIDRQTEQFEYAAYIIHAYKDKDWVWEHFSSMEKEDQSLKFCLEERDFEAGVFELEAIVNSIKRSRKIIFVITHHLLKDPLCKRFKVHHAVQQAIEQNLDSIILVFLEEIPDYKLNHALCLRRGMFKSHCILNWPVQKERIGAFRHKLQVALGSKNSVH
Assay: HEK-Blue TLR3 reporter cell SEAP assay, stimulated with murine plasma or liver total RNA
Format: cell-based
Conditions: plasma from DIO mice; inhibitor added 30 min before stimulus, or plasma digested with RNase I; FIG. 2F
Experimental: Stable TLR3-, 4-, 8-, and 9-overexpressing HEK-Blue and TLR3 knockout (KO) HEK-Dual Null cells (Invivogen) were propagated in high-glucose Dulbecco's modified Eagle's medium (DMEM) with 10% (v/v) fetal bovine serum (FBS, Corning) and maintained in growth medium supplemented with selective antibiotics following the manufacturer's instructions. RAW264.7 cells (ATCC) were cultured in high-glucose DMEM with 10% (v/v) FBS and then were subcultured by detachment with a cell scraper. C3H10T1/2 cells (ATCC) were cultured in high-glucose DMEM with 10% (v/v) FBS and 1× penicillin/streptomycin (Thermo Fisher). 3T3-L1 cells (ATCC) were cultivated in high-glucose DMEM with 10% (v/v) calf serum and 1× penicillin/streptomycin to maintain the undifferentiated status. At two days post-confluence, 3T3-L1 preadipocytes were induced to differentiate into adipocytes using an adipogenic cocktail containing 10 μg/mL insulin, 1 μM dexamethasone, and 0.5 mM 3-isobutyl-1-methylxanthine in 10% FBS DMEM. Two days post-induction, the cell medium was switched to the maintenance medium of 10% FBS DMEM supplemented with 2.5 μg/mL insulin.
HEK-Blue TLR3 cells (5×10^4 cells/well) were seeded and cultured overnight in 96-well plates in DMEM and then stimulated with murine plasma or liver total RNA. After 48 h, the activation of reporter cells was determined with a Quanti-blue medium (Invivogen). […]

Compound	activation of TLR3 by obese plasma
O=C(N[C@H](Cc1ccccc1)C(=O)O)c1sc2cc(F)ccc2c1Cl [TLR3 inhibitor]	blocked
ribonuclease I [RNase I]	blocked
